2 compounds from publication PMC2213532 (The Journal of Experimental Medicine, 2000) can be followed below.

Residues, ends and D or L forms follow the SMILES beside them.

The target in assay [1] is soluble H-2D^b (Mus musculus, UniProt P01899). As to the kind of experiment: biochemical. Format: binding.
In assay [2] the target is soluble H-2D^b. As to the kind of experiment: radioligand binding.

soluble H-2D^b (Mus musculus, UniProt P01899), sequence (P01899 25-362): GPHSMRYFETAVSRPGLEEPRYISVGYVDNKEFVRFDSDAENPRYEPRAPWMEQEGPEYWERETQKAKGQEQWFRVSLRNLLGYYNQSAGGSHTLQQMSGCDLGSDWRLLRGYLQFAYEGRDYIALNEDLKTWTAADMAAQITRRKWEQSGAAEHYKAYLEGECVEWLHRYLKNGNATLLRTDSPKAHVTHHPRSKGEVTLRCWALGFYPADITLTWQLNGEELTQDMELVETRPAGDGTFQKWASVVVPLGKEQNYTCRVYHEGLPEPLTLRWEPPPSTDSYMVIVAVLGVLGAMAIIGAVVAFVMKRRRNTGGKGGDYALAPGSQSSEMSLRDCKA
soluble H-2D^b (Mus musculus, UniProt P01899), sequence (P01887 21-119, further chain): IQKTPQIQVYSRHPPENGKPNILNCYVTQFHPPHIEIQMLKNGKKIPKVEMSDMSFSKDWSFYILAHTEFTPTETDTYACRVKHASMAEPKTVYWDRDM

In general, IC50 refers to the concentration at which inhibition is half-maximal. Higher therefore signals weaker potency. In the case of `CSCC[C@H](NC(=O)[C@@H](NC(=O)[C@H](CC(=O)O)NC(=O)[C@H](CCSC)NC(=O)[C@H](CC(N)=O)NC(=O)[C@H](CCC(=O)O)NC(=O)[C@H](CC(N)=O)NC(=O)[C@H](CO)NC(=O)[C@H](C)N)[C@@H](C)O)C(=O)O` [NP366-374] (H-ASNENMDTM-OH), in assay [1], the IC50 was 6 nM.

For the compound “NP_(366-374) peptide of A/Memphis/102/72”, the IC50 in assay [2] stood at 6 nM.
